Results taken from patent US7790763B2, “Substituted phenyl methanone derivatives” (Hoffmann-La Roche Inc., priority 2005, dated 2010).

target: T1, mGlyT-1b (Mus musculus, UniProt P28571); assay: Glycine uptake inhibition assay (mGlyT-1b); format: cell-based; conditions: [3H]-glycine uptake, Flp-in-CHO cells transfected with mGlyT-1b cDNA, 20 min preincubation at 22° C.; read-out: IC50 (μM) at GlyT-1
T1 construct: host or cells: Flp-in-CHO cells, stably transfected
T1 sequence (P28571 1-651 isoform P28571-2): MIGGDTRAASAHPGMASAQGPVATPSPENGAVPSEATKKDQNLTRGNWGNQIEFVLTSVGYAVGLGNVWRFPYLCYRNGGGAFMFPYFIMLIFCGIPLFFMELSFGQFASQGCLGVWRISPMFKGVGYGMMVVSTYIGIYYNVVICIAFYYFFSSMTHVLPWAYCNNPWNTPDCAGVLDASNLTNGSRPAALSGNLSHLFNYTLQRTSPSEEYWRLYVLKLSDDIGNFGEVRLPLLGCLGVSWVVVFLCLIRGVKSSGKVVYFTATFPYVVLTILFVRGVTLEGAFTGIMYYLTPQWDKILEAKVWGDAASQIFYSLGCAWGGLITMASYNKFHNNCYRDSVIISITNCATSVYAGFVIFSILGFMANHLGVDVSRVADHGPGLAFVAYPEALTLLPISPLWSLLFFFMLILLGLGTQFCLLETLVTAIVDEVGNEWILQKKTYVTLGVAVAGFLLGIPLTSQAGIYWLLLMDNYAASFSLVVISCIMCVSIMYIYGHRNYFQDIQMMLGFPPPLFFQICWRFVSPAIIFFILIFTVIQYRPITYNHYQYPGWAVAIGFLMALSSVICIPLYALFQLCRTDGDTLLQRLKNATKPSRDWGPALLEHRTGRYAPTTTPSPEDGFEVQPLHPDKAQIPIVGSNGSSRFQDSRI
Method: DMEM complete medium: Nutrient mixture F-12 (Gibco Life-technologies), fetal bovine serum (FBS) 5%, (Gibco life technologies), Penicillin/Streptomycin1% (Gibco life technologies), Hygromycin 0.6 mg/ml (Gibco life technologies), Glutamine 1 mM Gibco life technologies)
Uptake buffer (UB): 150 mM NaCl, 10 mM Hepes-Tris, pH 7.4, 1 mM CaCl2, 2.5 mM KCl, 2.5 mM MgSO4, 10 mM (+) D-glucose. Flp-in™-CHO (Invitrogen Cat n° R758-07)cells stably transfected with mGlyT1b cDNA.
Glycine Uptake Inhibition Assay (mGlyT-1b)
On day 1 mammalian cells, (Flp-in™-CHO), transfected with mGlyT-1b cDNA, were plated at the density of 40,000 cells/well in complete F-12 medium, without hygromycin in 96-well culture plates. On day 2, the medium was aspirated, and the cells were washed twice with uptake buffer (UB). The cells were then incubated for 20 min at 22° C. with either (i) no potential competitor, (ii) 10 mM non-radioactive glycine, (iii) a concentration of a potential inhibitor. A range of concentrations of the potential inhibitor was used to generate data for calculating the concentration of inhibitor resulting in 50% of the effect (e.g. IC50, the concentration of the competitor inhibiting glycine uptake of 50%). A solution was then immediately added containing [^3H]-glycine 60 nM (11-16 Ci/mmol) and 25 μM non-radioactive glycine. The plates were incubated with gentle shaking, and the reaction was stopped by aspiration of the mixture and washing (three times) with ice-cold UB. The cells were lysed with scintillation liquid, shaken 3 hours and the radioactivity in the cells was counted using a scintillation counter.

| Compound | IC50 [µM] |
| --- | --- |
| CC(C)Oc1ccc(S(C)(=O)=O)cc1C(=O)N1CC(Oc2cccc(C(F)(F)F)c2)C1 [Example 22, (2-Isopropoxy-5-methanesulfonyl-phenyl)-[3-(3-trifluoromethyl-phenoxy)-azetidin-1-yl]-methanone] | 0.7 |
| CC(C)Oc1ccc(S(C)(=O)=O)cc1C(=O)N1CCC(Oc2ccc(C(F)(F)F)cc2)C1 (racemic) [Example 13, Rac-(2-Isopropoxy-5-methanesulfonyl-phenyl)-[3-(4-trifluoromethyl-phenoxy)-pyrrolidin-1-yl]-methanone] | 0.55 |
| CNS(=O)(=O)c1ccc(OC2CCCC2)c(C(=O)N2CCC(Oc3ccc(C(F)(F)F)cc3)C2)c1 (centres unmarked) [Example 26, 4-Cyclopentyloxy-N-methyl-3-[3-(4-trifluoromethyl-phenoxy)-pyrrolidine-1-carbonyl]-benzenesulfonamide] | 0.109 |
| C[C@H](Oc1ccc(S(C)(=O)=O)cc1C(=O)N1CC(Oc2ccc(C(F)(F)F)cc2)C1)C(F)(F)F [Example 23, [5-Methanesulfonyl-2-((S)-2,2,2-trifluoro-1-methyl-ethoxy)-phenyl]-[3-(4-trifluoromethyl-phenoxy)-azetidin-1-yl]-methanone] | 0.39 |
| C[C@@H](Oc1ccc(S(C)(=O)=O)cc1C(=O)N1CC(Oc2ccc(C(F)(F)F)cc2)C1)C(F)(F)F [Example 24, [5-Methanesulfonyl-2-((R)-2,2,2-trifluoro-1-methyl-ethoxy)-phenyl]-[3-(4-trifluoromethyl-phenoxy)-azetidin-1-yl]-methanone] | 0.84 |
| CC(C)Oc1ccc(S(C)(=O)=O)cc1C(=O)N1CCC(Oc2ccc([N+](=O)[O-])cc2)CC1 [Example 4, (2-Isopropoxy-5-methanesulfonyl-phenyl)-[4-(4-nitro-phenoxy)-piperidin-1-yl]-methanone] | 1 |
| CC(C)Oc1ccc(S(C)(=O)=O)cc1C(=O)N1CCC(Oc2ccc3ccccc3c2)C1 (racemic) [Example 18, Rac-(2-Isopropoxy-5-methanesulfonyl-phenyl)-[3-(naphthalen-2-yloxy)-pyrrolidin-1-yl]-methanone] | 0.87 |
| CS(=O)(=O)c1ccc(N2CCOCC2)c(C(=O)N2CCC(Oc3ccc(C(F)(F)F)cc3)C2)c1 (centres unmarked) [Example 25, (5-Methanesulfonyl-2-morpholin-4-yl-phenyl)-[3-(4-trifluoromethyl-phenoxy)-pyrrolidin-1-yl]-methanone] | 0.078 |
| CC(C)Oc1ccc(S(C)(=O)=O)cc1C(=O)N1CCC(Oc2cc(C(F)(F)F)ccc2F)CC1 [Example 8, [4-(2-Fluoro-5-trifluoromethyl-phenoxy)-piperidin-1-yl]-(2-isopropoxy-5-methanesulfonyl-phenyl)-methanone] | 0.63 |
| CC(=O)c1ccc(OC2CCN(C(=O)c3cc(S(C)(=O)=O)ccc3OC(C)C)CC2)c(F)c1 [Example 5, 1-{3-Fluoro-4-[1-(2-isopropoxy-5-methanesulfonyl-benzoyl)-piperidin-4-yloxy]-phenyl}-ethanone] | 0.93 |
| CC(C)Oc1ccc(S(C)(=O)=O)cc1C(=O)N1CC(Oc2ccc(C(F)(F)F)cc2)C1 [Example 21, (2-Isopropoxy-5-methanesulfonyl-phenyl)-[3-(4-trifluoromethyl-phenoxy)-azetidin-1-yl]-methanone] | 0.87 |
